Source: US10273248B2, “Glucose uptake inhibitors” (Kadmon Corporation LLC, priority 2015, dated 2019)
Counter-ions that a name gives are not always drawn.

tested on: glycolysis in HT1080 cells; test: Glycolysis assay: oligomycin plus compound, cellular ATP by Cell Titer Glo; assay type: cell-based; settings: Homo sapiens, HT-1080, 1 h, 10 μM oligomycin, one hour, class symbols
Source text: Therefore, an assay was developed that utilizes the combination of the glucose uptake inhibitors disclosed herein with oligomycin, a well-characterized inhibitor of ATP synthase. Because oligomycin inhibits ATP derived from oxidative phosphorylation, any remaining ATP production is derived from glycolysis. By reading out cellular ATP levels using the Promega Cell Titer Glo kit, the extent of glycolysis inhibition by the glucose uptake inhibitors disclosed herein can be assessed. […] Utilizing this experimental set-up, the IC50 of glycolysis inhibition for each compound can be determined.
Determination of Glucose Uptake/GLUT Activity (Glycolysis Assay):
HT1080 cells (as well as other cell types) were plated to confluency in 96-well plates. Cells were exposed to the combination of 10 μM Oligomycin (to block mitochondrial-derived ATP) and the glucose uptake inhibitors disclosed herein for one-hour, after which glycolytically-derived ATP was measured with the Cell Titer-Glo assay kit (Promega). Dose-response curves of the glucose uptake inhibitors disclosed herein were used to determine the IC50 for GLUT activity.

IC50 [nM]	SMILES
101 to 250	CCN1CCc2nc(-c3cccc(OCC(=O)NC4CCCC4)c3)nc(Nc3ccc(-c4cn[nH]c4)cc3)c2C1 [Example 125, 2-(3-(4-((4-(1H-pyrazol-4-yl)phenyl)amino)-6-ethyl-5,6,7,8-tetrahydropyrido[4,3-d]pyrimidin-2-yl)phenoxy)-N-cyclopentylacetamide]
251 to 500	CCN1CCc2nc(-c3cccc(OCC(=O)NC4CCC4)c3)nc(Nc3ccc(-c4cn[nH]c4)cc3)c2C1 [Example 160, 2-(3-(4-((4-(1H-pyrazol-4-yl)phenyl)amino)-6-ethyl-5,6,7,8-tetrahydropyrido[4,3-d]pyrimidin-2-yl)phenoxy)-N-cyclobutylacetamide]
251 to 500	CC(Oc1cccc(-c2nc3c(c(Nc4ccc(-c5cn[nH]c5)cc4)n2)COC3)c1)C(=O)NCC(C)(C)C (centres unmarked) [Example 189, 2-(3-(4-((4-(1H-pyrazol-4-yl)phenyl)amino)-5,7-dihydrofuro[3,4-d]pyrimidin-2-yl)phenoxy)-N-neopentylpropanamide]
251 to 500	CCC(CC)NC(=O)COc1cccc(-c2nc(Nc3ccc(-c4cn[nH]c4)cc3)c3sccc3n2)c1 [Example 181, 2-(3-(4-((4-(1H-pyrazol-4-yl)phenyl)amino)thieno[3,2-d]pyrimidin-2-yl)phenoxy)-N-(pentan-3-yl)acetamide]
10 to 100	O=C(COc1cccc(-c2nc3c(c(Nc4ccc(-c5cn[nH]c5)cc4)n2)COC3)c1)NC1CCCCC1 [Example 89, 2-(3-(4-((4-(1H-pyrazol-4-yl)phenyl)amino)-5,7-dihydrofuro[3,4-d]pyrimidin-2-yl)phenoxy)-N-cyclohexylacetamide]
101 to 250	CC(=O)N1Cc2nc(-c3cccc(OCC(=O)NC(C)C)c3)nc(Nc3ccc(-c4cn[nH]c4)cc3)c2C1 [Example 140, 2-(3-(4-((4-(1H-pyrazol-4-yl)phenyl)amino)-6-acetyl-6,7-dihydro-5H-pyrrolo[3,4-d]pyrimidin-2-yl)phenoxy)-N-isopropylacetamide]
10 to 100	CC(=O)N1CCc2nc(-c3cccc(OCC(=O)NCC(C)(C)C)c3)nc(Nc3ccc(-c4cn[nH]c4)cc3)c2C1 [Example 147, 2-(3-(4-((4-(1H-pyrazol-4-yl)phenyl)amino)-6-acetyl-5,6,7,8-tetrahydropyrido[4,3-d]pyrimidin-2-yl)phenoxy)-N-neopentylacetamide]
10 to 100	CC(C)(C)CNC(=O)COc1cccc(-c2nc3c(c(Nc4ccc(-c5cn[nH]c5)cc4)n2)COC3)c1 [Example 79, 2-(3-(4-((4-(1H-pyrazol-4-yl)phenyl)amino)-5,7-dihydrofuro[3,4-d]pyrimidin-2-yl)phenoxy)-N-neopentylacetamide]
> 1000	COCCOc1cccc(-c2nc3c(c(Nc4ccc(-c5cn[nH]c5)cc4)n2)COCC3)c1 [Example 127, N-(4-(1H-pyrazol-4-yl)phenyl)-2-(3-(2-methoxyethoxy)phenyl)-7,8-dihydro-5H-pyrano[4,3-d]pyrimidin-4-amine]
10 to 100	CCC(CC)NC(=O)COc1cccc(-c2nc(Nc3ccc(-c4cn[nH]c4)cc3)c3ccncc3n2)c1 [Example 137, 2-(3-(4-((4-(1H-pyrazol-4-yl)phenyl)amino)pyrido[3,4-d]pyrimidin-2-yl)phenoxy)-N-(pentan-3-yl)acetamide dihydrochloride]
501 to 1000	CN1CCN(CC(=O)Nc2cccc(-c3nc(Nc4ccc(-c5cn[nH]c5)cc4)c4occc4n3)c2)CC1 [Example 184, N-(3-(4-((4-(1H-pyrazol-4-yl)phenyl)amino)furo[3,2-d]pyrimidin-2-yl)phenyl)-2-(4-methylpiperazin-1-yl)acetamide]
101 to 250	CCN1CCc2nc(-c3cccc(OCC(=O)NCC(C)(C)C)c3)nc(Nc3ccc(-c4cn[nH]c4)cc3)c2C1 [Example 170, 2-(3-(4-((4-(1H-pyrazol-4-yl)phenyl)amino)-6-ethyl-5,6,7,8-tetrahydropyrido[4,3-d]pyrimidin-2-yl)phenoxy)-N-neopentylacetamide]
> 1000	CC(Oc1cccc(-c2nc3c(c(Nc4ccc(-c5cn[nH]c5)cc4)n2)COC3)c1)C(=O)NC(C)(C)C (centres unmarked) [Example 188, 2-(3-(4-((4-(1H-pyrazol-4-yl)phenyl)amino)-5,7-dihydrofuro[3,4-d]pyrimidin-2-yl)phenoxy)-N-(tert-butyl)propanamide]
501 to 1000	CC(C(=O)Nc1cccc(-c2nc3c(c(Nc4ccc(-c5cn[nH]c5)cc4)n2)COC3)c1)N1CCOCC1 (centres unmarked) [Example 171, N-(3-(4-((4-(1H-pyrazol-4-yl)phenyl)amino)-5,7-dihydrofuro[3,4-d]pyrimidin-2-yl)phenyl)-2-morpholinopropanamide]
10 to 100	CCC(C)(C)NC(=O)COc1cccc(-c2nc3c(c(Nc4ccc(-c5cn[nH]c5)cc4)n2)COCC3)c1 [Example 166, 2-(3-(4-((4-(1H-pyrazol-4-yl)phenyl)amino)-7,8-dihydro-5H-pyrano[4,3-d]pyrimidin-2-yl)phenoxy)-N-(tert-pentyl)acetamide]
> 1000	O=C(Nc1cccc(-c2nc(Nc3ccc(-c4cn[nH]c4)cc3)c3sccc3n2)c1)c1ccccn1 [Example 176, N-(3-(4-((4-(1H-pyrazol-4-yl)phenyl)amino)thieno[3,2-d]pyrimidin-2-yl)phenyl)picolinamide]
10 to 100	CC(C)(C)NC(=O)COc1cccc(-c2nc(Nc3ccc(-c4cn[nH]c4)cc3)c3cnccc3n2)c1 [Example 135, 2-(3-(4-((4-(1H-pyrazol-4-yl)phenyl)amino)pyrido[4,3-d]pyrimidin-2-yl)phenoxy)-N-(tert-butyl)acetamide]

Further lines, the compound ahead of its results:

SMILES	IC50 [nM]
CC(C)NC(=O)COc1cccc(-c2nc(Nc3ccc(-c4cn[nH]c4)cc3)c3ncsc3n2)c1 [Example 65, 2-(3-(7-((4-(1H-pyrazol-4-yl)phenyl)amino)thiazolo[5,4-d]pyrimidin-5-yl)phenoxy)-N-isopropylacetamide]	251 to 500
Cn1cnc2c(Nc3ccc(-c4cn[nH]c4)cc3)nc(-c3cccc(OCC(=O)NC4CCC4)c3)nc21 [Example 29]	251 to 500
Cn1ncc2c(Nc3ccc(-c4cn[nH]c4)cc3)nc(-c3cccc(OCC(=O)NC4CCCC4)c3)nc21 [Example 56, 2-(3-(4-((4-(1H-pyrazol-4-yl)phenyl)amino)-1-methyl-1H-pyrazolo[3,4-d]pyrimidin-6-yl)phenoxy)-N-cyclopentylacetamide]	101 to 250
O=C(COc1cccc(-c2nc(Nc3ccc(-c4cn[nH]c4)cc3)c3occc3n2)c1)NC1CCCC1 [Example 26]	251 to 500
Cc1cncc(C(=O)Nc2cccc(-c3nc4c(c(Nc5ccc(-c6cn[nH]c6)cc5)n3)COC4)c2)c1 [Example 73, N-(3-(4-((4-(1H-pyrazol-4-yl)phenyl)amino)-5,7-dihydrofuro[3,4-d]pyrimidin-2-yl)phenyl)-5-methylnicotinamide]	10 to 100
Cn1cnc2c(Nc3ccc(-c4cn[nH]c4)cc3)nc(-c3cccc(OCC(=O)NC4CC4)c3)nc21 [Example 22]	> 1000
CC(C(=O)Nc1cccc(-c2nc(Nc3ccc(-c4cn[nH]c4)cc3)c3ncccc3n2)c1)N1CCOCC1 (centres unmarked) [Example 50, N-(3-(4-((4-(1H-pyrazol-4-yl)phenyl)amino)pyrido[3,2-d]pyrimidin-2-yl)phenyl)-2-morpholinopropanamide]	501 to 1000
CC(C)NC(=O)COc1cccc(-c2nc(Nc3ccc4[nH]ncc4c3)c3sccc3n2)c1 [Example 15]	> 1000
Cc1ccncc1C(=O)Nc1cccc(-c2nc3c(c(Nc4ccc(-c5cn[nH]c5)cc4)n2)COC3)c1 [Example 74, N-(3-(4-((4-(1H-pyrazol-4-yl)phenyl)amino)-5,7-dihydrofuro[3,4-d]pyrimidin-2-yl)phenyl)-4-methylnicotinamide]	101 to 250
O=C(COc1cccc(-c2nc(Nc3ccc(-c4cn[nH]c4)cc3)c3occc3n2)c1)NC1CCC1 [Example 25]	251 to 500
Cn1cnc2c(Nc3ccc(-c4cn[nH]c4)cc3)nc(-c3cccc(OCC(=O)NC4CCCC4)c3)nc21 [Example 30]	101 to 250
O=C(COc1cccc(-c2nc(Nc3ccc(-c4cn[nH]c4)cc3)c3sccc3n2)c1)NC1CC1 [Example 20]	501 to 1000
O=C(CN1CCOCC1)Nc1cccc(-c2nc(Nc3ccc4[nH]ncc4c3)c3ccsc3n2)c1 [Example 18]	> 1000
O=C(COc1cccc(-c2nc(Nc3ccc(-c4cn[nH]c4)cc3)c3ccsc3n2)c1)NC1CCCC1 [Example 28]	101 to 250
O=C(Nc1cccc(-c2nc3c(c(Nc4ccc(-c5cn[nH]c5)cc4)n2)COC3)c1)c1cncc(Cl)c1 [Example 69, N-(3-(4-((4-(1H-pyrazol-4-yl)phenyl)amino)-5,7-dihydrofuro[3,4-d]pyrimidin-2-yl)phenyl)-5-chloronicotinamide]	10 to 100
O=C(Nc1cccc(-c2nc3c(c(Nc4ccc(-c5cn[nH]c5)cc4)n2)COC3)c1)c1cncc(F)c1 [Example 75, N-(3-(4-((4-(1H-pyrazol-4-yl)phenyl)amino)-5,7-dihydrofuro[3,4-d]pyrimidin-2-yl)phenyl)-5-fluoronicotinamide]	10 to 100
CC(C)NC(=O)COc1cccc(-c2nc(Nc3ccc4[nH]ncc4c3)c3ccsc3n2)c1 [Example 17]	> 1000

same assay, conditions: Homo sapiens, HT-1080, 1 h, 10 μM oligomycin, one hour, number printed instead of class

IC50 [nM]	SMILES
28	CC(C)C(=O)N1CCc2nc(-c3cccc(OCC(=O)NC4CCCC4)c3)nc(Nc3ccc(-c4cn[nH]c4)cc3)c2C1 [Example 150, 2-(3-(4-((4-(1H-pyrazol-4-yl)phenyl)amino)-6-isobutyryl-5,6,7,8-tetrahydropyrido[4,3-d]pyrimidin-2-yl)phenoxy)-N-cyclopentylacetamide]
